PubChem BioAssay (NCI)
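Cells were grown in 96-well plates and exposed to each compound for 48 hours at five concentrations; endpoints were interpolated linearly between bracketing concentrations, or set to the highest concentration if not reached. GI50 = concentration required for 50% inhibition of growth. The concentration for full growth arrest is given as TGI.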

How the values were obtained:
Assay in all cases: NCI anticancer screen, dose series, 48 h
MCF7 breast = tested on: MCF7 breast
MDA-MB-231 breast = tested on: MDA-MB-231 breast
HCT-15 colon = tested on: HCT-15 colon
SW-620 colon = tested on: SW-620 colon
RPMI-8226 leukemia = tested on: RPMI-8226 leukemia
CAKI-1 renal = tested on: CAKI-1 renal
HOP-92 NSCLC = tested on: HOP-92 NSCLC
OVCAR-3 ovarian = tested on: OVCAR-3 ovarian
MOLT-4 leukemia = tested on: MOLT-4 leukemia
HOP-62 NSCLC = tested on: HOP-62 NSCLC

Compound | GI50 (MCF7 breast) [µM] | TGI (MCF7 breast) [µM] | GI50 (MDA-MB-231 breast) [µM] | TGI (MDA-MB-231 breast) [µM] | GI50 (HCT-15 colon) [µM] | TGI (HCT-15 colon) [µM] | GI50 (SW-620 colon) [µM] | TGI (SW-620 colon) [µM] | GI50 (RPMI-8226 leukemia) [µM] | TGI (RPMI-8226 leukemia) [µM] | GI50 (CAKI-1 renal) [µM] | TGI (CAKI-1 renal) [µM] | GI50 (HOP-92 NSCLC) [µM] | TGI (HOP-92 NSCLC) [µM] | GI50 (OVCAR-3 ovarian) [µM] | TGI (OVCAR-3 ovarian) [µM] | GI50 (MOLT-4 leukemia) [µM] | TGI (MOLT-4 leukemia) [µM] | GI50 (HOP-62 NSCLC) [µM] | TGI (HOP-62 NSCLC) [µM]
OCCCCC#Cc1ccccc1C#Cc1ccccc1F | 42.1 | > 100 | 17 | 36.6 | 18 | 32.5 | 22.2 | 44.4 | 30.7 | 70 | 24.2 | 51.4 | 22 | 64.2 | 19.7 | 43.6 | 21.2 | 49.8 | 12 | 26.1
COc1ccc(Nc2ccnc(NCCNc3ccnc4cc(Cl)ccc34)n2)cc1 | 1.53 | 5.2 | 2.01 | 6.71 | 1.23 | 4.03 | 1.6 | 10.2 | 1.55 | 4.84 | 1.73 | 4.57 | 1 | 6.34 | 2.61 | 10.3 | 3.46 | 16.2 | 3.56 | 18.4
O=C1c2ccccc2-c2c1c1ccc([N+](=O)[O-])cc1c(=O)n2CCNCCCNCCn1c2c(c3ccc([N+](=O)[O-])cc3c1=O)C(=O)c1ccccc1-2 | 0.708 | 27.1 | 0.033 | 0.53 | 0.197 | 16.1 | 0.0641 | 5.68 | 0.00538 | 0.139 | 0.822 | 21.7 | 0.803 | 4.16 | 0.638 | 5.19 | 0.005 | 18.6 | 0.742 | 7.51
O=S1(=O)N(Cc2ccccc2)[C@@H](Cc2ccccc2)C2O[C@H]2[C@H](Cc2ccccc2)N1Cc1ccccc1 (stereo partly drawn) | 4.27 | > 7.5 | > 7.5 | > 7.5 | 3.92 | > 7.5 | > 7.5 | > 7.5 | 4.92 | > 7.5 | 0.949 | > 7.5 | > 7.5 | > 7.5 | 4.03 | > 7.5 | 4.12 | > 7.5 | > 7.5 | > 7.5
CO/C(=N\N=C\c1ccc(Cl)cc1Cl)c1ccncc1 | – | > 10 | – | > 10 | – | > 10 | – | > 10 | – | > 10 | – | > 10 | – | > 10 | – | > 10 | – | > 10 | – | > 10
CN(C)C(=S)NN=C(c1ccccn1)c1ccccn1 | < 0.01 | > 47.4 | 0.0412 | 27.8 | < 0.012 | 25.5 | < 0.0115 | > 40.2 | – | > 100 | < 0.0127 | 6.59 | – | > 86.6 | < 0.01 | 30.5 | < 0.01 | 2.15 | < 0.01 | 0.0273
CCN(CC)c1ccc(N=C2C=C(C(=O)Nc3ccc(S(C)(=O)=O)cc3)C(=O)c3ccccc32)c(C)c1 | > 100 | > 100 | 4.53 | > 100 | 5.28 | > 100 | > 100 | > 100 | 4.96 | > 100 | 81 | > 100 | > 100 | > 100 | 3.78 | > 100 | > 100 | > 100 | 91.7 | > 100
CC(=N\O)/C(C)=N/O.CC(=N\O)/C(C)=N/O.CC(=N\O)/C(C)=N/O.CC(=N\O)/C(C)=N/O.[Cu].[Cu] | 17.3 | 31.2 | 20.3 | 35.6 | 20.6 | 42.1 | 21.5 | 45.9 | 27.1 | 63.7 | 20.3 | 34.6 | 18.4 | 32.8 | 22.6 | 43.7 | 19.9 | 47.4 | 24.7 | 64.8
CCc1ccc(-c2ccc(=O)n(-c3ccc(S(N)(=O)=O)cc3)n2)cc1 | 1.46 | > 43.5 | 14.6 | > 100 | 0.746 | > 100 | 0.56 | > 100 | 0.759 | 7.33 | 2.6 | > 100 | 5.55 | 43.1 | 0.957 | > 20.2 | 0.884 | > 90 | 5.62 | 30.5
C[C@@H]1COCCN1c1nc(-c2cnc(N)cc2C(F)F)nc(N2[C@H](C)COC[C@@H]2C)n1 | 0.115 | 11.4 | 0.412 | 20.8 | 0.236 | 12.4 | 0.419 | 13 | 0.174 | 4.28 | 0.19 | 11.4 | 0.09 | 1.14 | 0.293 | 12.7 | 0.295 | 9.15 | 0.332 | 13.2
